Experimental data published in ChEMBL document CHEMBL1681776, “A photoreactive probe that differentiates the binding sites of noncompetitive GABA receptor antagonists” (Bioorg Med Chem Lett, 2011).
Calls of active or inactive are those of the source. No cut-off for these calls is given here.

Legend:
[1] = (§1) Displacement of [3H]EBOB from housefly head membrane GABA receptor by liquid scintillation counting; set-up: species or system Musca domestica
[2] = (§2) Displacement of [3H]EBOB from Wistar rat brain membrane GABA receptor by liquid scintillation counting
Rattus norvegicus [3] = species: Rattus norvegicus; test: Displacement of [3H]EBOB from GABA receptor in 365 nm ultraviolet light irradiated Wistar rat brain P2 membrane by photoaffinity labeling experiment
Musca domestica = test: as §1
Rattus norvegicus [4] = species: Rattus norvegicus; test: Displacement of [3H]EBOB from GABA receptor in Wistar rat brain P2 membrane in presence of fipronil measured after membrane washout; format: cell membranes
Rattus norvegicus [5] = species: Rattus norvegicus; test: Displacement of [3H]EBOB from GABA receptor in 365 nm ultraviolet light irradiated Wistar rat brain P2 membrane by photoaffinity labeling experiment in presence of picrotoxinin measured after membrane washout
Rattus norvegicus [6] = species: Rattus norvegicus; test: as §2

CC(C)(C)CCOC(=O)c1ccc(C#CCCC(=O)O)cc1
IC50 [1]: 3.41 µM | IC50 [2]: 0.088 µM

COC(=O)CCC#Cc1ccc(C(=O)Oc2ccc(C3(C(F)(F)F)N=N3)cc2[N+](=O)[O-])cc1
Activity (Rattus norvegicus [3]): Active | IC50 [1]: 0.24 µM | Activity (Musca domestica): Dose-dependent effect | Activity (Rattus norvegicus [4]): Active | Activity (Rattus norvegicus [5]): inactive | Activity (Rattus norvegicus [6]): Dose-dependent effect | IC50 [2]: 1.49 µM
